Laboratory results from the kinase profiling compilation of Christmann-Franck et al. (2016).

Key:
Test in all cases: KINOMEscan competition binding
Details in all cases: compound 10.0 µM
RPS6KA1 KD2 (human) = RPS6KA1 KD2 (human) (UniProt Q15418)
MATK (human) = MATK (human) (UniProt P42679)
FLT1 (human) = FLT1 (human) (UniProt P17948)
PRPF4B (human) = PRPF4B (human) (UniProt Q13523)
STK17B (human) = STK17B (human) (UniProt O94768)
CDC42BPG (human) = CDC42BPG (human) (UniProt Q6DT37)
MST1R (human) = MST1R (human) (UniProt Q04912)
ADCK3 (human) = ADCK3 (human) (UniProt Q8NI60)
TNIK (human) = TNIK (human) (UniProt Q9UKE5)
SNRK (human) = SNRK (human) (UniProt Q9NRH2)
NEK7 (human) = NEK7 (human) (UniProt Q8TDX7)
CDK18 (human) = CDK18 (human) (UniProt Q07002)
NTRK3 (human) = NTRK3 (human) (UniProt Q16288)
BLK (human) = BLK (human) (UniProt P51451)
ERN1 (human) = ERN1 (human) (UniProt O75460)
PHKG2 (human) = PHKG2 (human) (UniProt P15735)
PHKG2 (human), sequence (P15735 whole entry, looked up): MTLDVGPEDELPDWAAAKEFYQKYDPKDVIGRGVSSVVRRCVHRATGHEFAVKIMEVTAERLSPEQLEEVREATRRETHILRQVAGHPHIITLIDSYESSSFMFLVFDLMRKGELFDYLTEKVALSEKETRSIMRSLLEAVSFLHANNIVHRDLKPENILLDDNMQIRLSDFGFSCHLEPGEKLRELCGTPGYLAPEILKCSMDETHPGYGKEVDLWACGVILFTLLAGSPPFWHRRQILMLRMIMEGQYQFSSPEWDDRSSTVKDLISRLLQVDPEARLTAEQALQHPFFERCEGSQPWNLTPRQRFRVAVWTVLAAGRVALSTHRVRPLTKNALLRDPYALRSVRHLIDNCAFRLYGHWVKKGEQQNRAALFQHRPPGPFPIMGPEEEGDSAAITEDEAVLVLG

RPS6KA4 KD1 (human) = RPS6KA4 KD1 (human) (UniProt O75676)
CDK4 CCND3 (human) = CDK4 CCND3 (human) (UniProt P11802+P30281)
NEK3 (human) = NEK3 (human) (UniProt P51956)
SGK110 (human) = SGK110 (human) (UniProt P0C264)
[1] = system: BMX (human), P51813 [V600E]
TLK1 (human) = TLK1 (human) (UniProt Q9UKI8)
TLK1 (human), sequence (Q9UKI8 whole entry, looked up): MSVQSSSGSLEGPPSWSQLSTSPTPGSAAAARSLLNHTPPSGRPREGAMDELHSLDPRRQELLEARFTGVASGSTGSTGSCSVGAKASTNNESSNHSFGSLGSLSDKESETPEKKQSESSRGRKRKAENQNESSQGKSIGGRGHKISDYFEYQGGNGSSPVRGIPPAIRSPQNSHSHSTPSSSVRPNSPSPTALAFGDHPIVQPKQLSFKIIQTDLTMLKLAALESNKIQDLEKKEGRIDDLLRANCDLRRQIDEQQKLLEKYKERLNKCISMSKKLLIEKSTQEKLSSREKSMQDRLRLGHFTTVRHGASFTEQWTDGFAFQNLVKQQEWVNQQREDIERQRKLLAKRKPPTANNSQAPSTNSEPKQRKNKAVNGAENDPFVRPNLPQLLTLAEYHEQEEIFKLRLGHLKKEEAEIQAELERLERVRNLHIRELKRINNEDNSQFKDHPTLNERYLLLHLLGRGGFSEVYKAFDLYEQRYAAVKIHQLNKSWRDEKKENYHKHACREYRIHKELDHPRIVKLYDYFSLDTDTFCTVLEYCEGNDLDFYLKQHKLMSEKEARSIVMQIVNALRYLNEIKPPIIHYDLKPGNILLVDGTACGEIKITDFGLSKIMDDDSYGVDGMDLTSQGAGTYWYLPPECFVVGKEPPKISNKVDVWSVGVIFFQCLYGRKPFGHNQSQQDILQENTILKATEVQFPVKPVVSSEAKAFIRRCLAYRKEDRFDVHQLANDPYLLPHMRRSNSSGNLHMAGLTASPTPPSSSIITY

IRAK1 (human) = IRAK1 (human) (UniProt P51617)
IRAK1 (human), sequence (P51617 whole entry, looked up): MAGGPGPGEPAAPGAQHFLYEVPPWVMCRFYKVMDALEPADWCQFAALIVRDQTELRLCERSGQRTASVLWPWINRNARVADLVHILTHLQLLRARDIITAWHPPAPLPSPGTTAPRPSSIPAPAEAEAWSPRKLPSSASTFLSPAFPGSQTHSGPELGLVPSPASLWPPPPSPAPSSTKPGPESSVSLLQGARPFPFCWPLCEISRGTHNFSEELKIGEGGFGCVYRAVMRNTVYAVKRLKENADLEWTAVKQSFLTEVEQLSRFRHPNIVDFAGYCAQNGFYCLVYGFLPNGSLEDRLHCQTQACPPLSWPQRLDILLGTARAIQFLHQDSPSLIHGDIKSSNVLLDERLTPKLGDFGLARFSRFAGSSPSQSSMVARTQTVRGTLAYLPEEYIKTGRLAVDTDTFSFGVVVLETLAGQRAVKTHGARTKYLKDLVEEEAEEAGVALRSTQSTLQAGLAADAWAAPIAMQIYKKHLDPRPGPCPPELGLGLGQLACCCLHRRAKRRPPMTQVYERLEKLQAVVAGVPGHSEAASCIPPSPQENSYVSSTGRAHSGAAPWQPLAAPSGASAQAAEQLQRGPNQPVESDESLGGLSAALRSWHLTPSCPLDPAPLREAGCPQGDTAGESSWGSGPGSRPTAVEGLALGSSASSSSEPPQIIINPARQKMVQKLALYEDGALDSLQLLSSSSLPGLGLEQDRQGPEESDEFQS

[2] = system: EGFR (human), P00533 [G719C]
MAPK15 (human) = MAPK15 (human) (UniProt Q8TD08)
MAPK15 (human), sequence (Q8TD08 whole entry, looked up): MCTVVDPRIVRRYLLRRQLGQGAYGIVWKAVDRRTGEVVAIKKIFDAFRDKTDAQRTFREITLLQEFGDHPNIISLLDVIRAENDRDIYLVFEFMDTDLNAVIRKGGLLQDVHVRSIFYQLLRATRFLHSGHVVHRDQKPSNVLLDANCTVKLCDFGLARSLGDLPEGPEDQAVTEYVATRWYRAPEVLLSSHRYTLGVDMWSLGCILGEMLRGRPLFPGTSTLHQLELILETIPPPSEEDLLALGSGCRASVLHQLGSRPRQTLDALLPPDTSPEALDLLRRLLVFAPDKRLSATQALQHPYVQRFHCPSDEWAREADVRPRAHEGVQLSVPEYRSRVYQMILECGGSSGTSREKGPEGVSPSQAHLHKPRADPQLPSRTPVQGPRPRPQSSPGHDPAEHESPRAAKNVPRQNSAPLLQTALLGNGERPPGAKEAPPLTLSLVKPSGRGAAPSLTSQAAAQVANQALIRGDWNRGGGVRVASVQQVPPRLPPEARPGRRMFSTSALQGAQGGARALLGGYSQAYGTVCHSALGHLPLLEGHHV

PAK1 (human) = PAK1 (human) (UniProt Q13153)
PAK1 (human), sequence (Q13153 whole entry, looked up): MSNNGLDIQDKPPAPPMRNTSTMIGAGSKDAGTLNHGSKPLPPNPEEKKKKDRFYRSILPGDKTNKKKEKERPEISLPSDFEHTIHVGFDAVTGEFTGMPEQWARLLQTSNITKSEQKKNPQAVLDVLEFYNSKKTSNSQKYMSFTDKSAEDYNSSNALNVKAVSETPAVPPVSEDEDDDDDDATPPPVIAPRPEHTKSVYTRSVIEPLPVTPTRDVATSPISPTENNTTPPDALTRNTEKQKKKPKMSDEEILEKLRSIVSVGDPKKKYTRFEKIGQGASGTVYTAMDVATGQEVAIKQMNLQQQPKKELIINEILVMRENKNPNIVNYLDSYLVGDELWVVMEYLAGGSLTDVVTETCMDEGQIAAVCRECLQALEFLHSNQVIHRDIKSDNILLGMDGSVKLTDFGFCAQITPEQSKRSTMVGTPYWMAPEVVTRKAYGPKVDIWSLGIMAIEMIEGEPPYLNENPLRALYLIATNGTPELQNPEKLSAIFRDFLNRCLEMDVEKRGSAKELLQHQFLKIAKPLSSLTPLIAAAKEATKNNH

BRSK1 (human) = BRSK1 (human) (UniProt Q8TDC3)
PRKG2 (human) = PRKG2 (human) (UniProt Q13237)
MAP4K5 (human) = MAP4K5 (human) (UniProt Q9Y4K4)
MAP4K5 (human), sequence (Q9Y4K4 whole entry, looked up): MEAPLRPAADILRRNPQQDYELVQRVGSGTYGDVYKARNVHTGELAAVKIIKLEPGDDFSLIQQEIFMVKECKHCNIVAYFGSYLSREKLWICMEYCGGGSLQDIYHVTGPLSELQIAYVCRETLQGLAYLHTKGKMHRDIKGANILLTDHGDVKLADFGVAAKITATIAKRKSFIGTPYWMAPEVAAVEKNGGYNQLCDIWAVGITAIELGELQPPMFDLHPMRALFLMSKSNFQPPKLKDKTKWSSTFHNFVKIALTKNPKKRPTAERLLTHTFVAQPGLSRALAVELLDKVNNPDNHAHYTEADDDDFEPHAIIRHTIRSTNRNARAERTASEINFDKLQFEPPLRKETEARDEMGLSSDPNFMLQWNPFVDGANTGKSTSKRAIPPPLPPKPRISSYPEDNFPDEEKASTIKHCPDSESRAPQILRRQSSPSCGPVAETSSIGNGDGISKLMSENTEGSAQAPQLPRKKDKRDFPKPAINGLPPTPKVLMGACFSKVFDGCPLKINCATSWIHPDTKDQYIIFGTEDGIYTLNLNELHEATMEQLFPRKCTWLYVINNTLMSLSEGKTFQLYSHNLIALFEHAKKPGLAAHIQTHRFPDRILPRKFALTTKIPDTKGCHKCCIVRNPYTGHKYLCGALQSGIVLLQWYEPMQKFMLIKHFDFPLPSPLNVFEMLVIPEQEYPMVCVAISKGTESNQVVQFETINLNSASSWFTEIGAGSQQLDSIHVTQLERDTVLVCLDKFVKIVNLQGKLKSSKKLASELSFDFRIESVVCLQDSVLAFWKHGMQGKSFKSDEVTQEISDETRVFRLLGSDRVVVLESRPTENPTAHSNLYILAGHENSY

[3] = system: FLT3 (human), P36888 [D835Y]
MAP2K2 (human) = MAP2K2 (human) (UniProt P36507)
PLK3 (human) = PLK3 (human) (UniProt Q9H4B4)
CSK (human) = CSK (human) (UniProt P41240)
ANKK1 (human) = ANKK1 (human) (UniProt Q8NFD2)
[4] = target: TYK2 JH1 catalytic (human) (UniProt P29597)
TYK2 JH1 catalytic (human), sequence (P29597 whole entry, looked up): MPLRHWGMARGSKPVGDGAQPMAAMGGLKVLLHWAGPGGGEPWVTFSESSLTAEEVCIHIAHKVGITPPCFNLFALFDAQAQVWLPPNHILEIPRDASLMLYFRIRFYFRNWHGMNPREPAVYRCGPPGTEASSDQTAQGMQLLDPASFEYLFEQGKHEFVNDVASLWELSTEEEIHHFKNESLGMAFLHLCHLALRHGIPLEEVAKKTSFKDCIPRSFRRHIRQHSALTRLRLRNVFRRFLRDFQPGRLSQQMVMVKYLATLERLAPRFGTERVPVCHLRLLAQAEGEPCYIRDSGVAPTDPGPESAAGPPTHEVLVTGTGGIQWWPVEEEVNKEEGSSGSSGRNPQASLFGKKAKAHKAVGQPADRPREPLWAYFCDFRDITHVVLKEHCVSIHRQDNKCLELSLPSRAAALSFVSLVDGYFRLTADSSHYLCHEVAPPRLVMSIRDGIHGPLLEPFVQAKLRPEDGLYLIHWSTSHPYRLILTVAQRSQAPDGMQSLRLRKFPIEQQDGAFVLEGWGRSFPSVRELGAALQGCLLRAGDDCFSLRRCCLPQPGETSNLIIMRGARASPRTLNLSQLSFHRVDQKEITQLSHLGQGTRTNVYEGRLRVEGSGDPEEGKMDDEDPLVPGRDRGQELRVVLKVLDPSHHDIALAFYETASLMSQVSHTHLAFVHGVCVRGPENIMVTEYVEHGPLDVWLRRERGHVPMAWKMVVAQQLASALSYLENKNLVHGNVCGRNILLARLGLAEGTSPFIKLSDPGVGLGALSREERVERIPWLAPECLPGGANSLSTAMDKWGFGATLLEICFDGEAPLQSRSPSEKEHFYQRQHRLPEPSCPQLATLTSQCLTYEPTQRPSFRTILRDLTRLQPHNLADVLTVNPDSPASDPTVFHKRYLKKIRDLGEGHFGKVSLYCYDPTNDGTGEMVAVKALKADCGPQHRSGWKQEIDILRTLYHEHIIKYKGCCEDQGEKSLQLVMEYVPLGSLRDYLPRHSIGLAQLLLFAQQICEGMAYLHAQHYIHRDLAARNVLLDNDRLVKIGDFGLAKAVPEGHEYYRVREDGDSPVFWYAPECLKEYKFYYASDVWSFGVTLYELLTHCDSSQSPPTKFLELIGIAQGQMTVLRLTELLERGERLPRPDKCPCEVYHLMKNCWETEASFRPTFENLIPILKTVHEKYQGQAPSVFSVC

TSSK1B (human) = TSSK1B (human) (UniProt Q9BXA7)
CaMK1 (human) = CaMK1 (human) (UniProt Q14012)
RIOK3 (human) = RIOK3 (human) (UniProt O14730)
HIPK1 (human) = HIPK1 (human) (UniProt Q86Z02)
MAPK8 (human) = MAPK8 (human) (UniProt P45983)

SMILES	kinase still bound, per cent of control (RPS6KA1 KD2 (human)) [%]	kinase still bound, per cent of control (MATK (human)) [%]	kinase still bound, per cent of control (FLT1 (human)) [%]	kinase still bound, per cent of control (PRPF4B (human)) [%]	kinase still bound, per cent of control (STK17B (human)) [%]	kinase still bound, per cent of control (CDC42BPG (human)) [%]	kinase still bound, per cent of control (MST1R (human)) [%]	kinase still bound, per cent of control (ADCK3 (human)) [%]	kinase still bound, per cent of control (TNIK (human)) [%]	kinase still bound, per cent of control (SNRK (human)) [%]	kinase still bound, per cent of control (NEK7 (human)) [%]	kinase still bound, per cent of control (CDK18 (human)) [%]	kinase still bound, per cent of control (NTRK3 (human)) [%]	kinase still bound, per cent of control (BLK (human)) [%]	kinase still bound, per cent of control (ERN1 (human)) [%]	kinase still bound, per cent of control (PHKG2 (human)) [%]	kinase still bound, per cent of control (RPS6KA4 KD1 (human)) [%]	kinase still bound, per cent of control (CDK4 CCND3 (human)) [%]	kinase still bound, per cent of control (NEK3 (human)) [%]	kinase still bound, per cent of control (SGK110 (human)) [%]	other results
CCN1CCN(Cc2ccc(NC(=O)c3ccc(C)c(/C=C/c4cnc5[nH]ccc5c4OC)c3)cc2C(F)(F)F)CC1	20	100	2.4	12	1	16	100	100	3.2	95	64	100	0.95	0.15	72	100	50	73	77	41	kinase still bound, per cent of control [1]: 0.05%; kinase still bound, per cent of control (TLK1 (human)): 100%; kinase still bound, per cent of control (IRAK1 (human)): 26%; kinase still bound, per cent of control [2]: 0.05%; kinase still bound, per cent of control (MAPK15 (human)): 67%; kinase still bound, per cent of control (PAK1 (human)): 100%; kinase still bound, per cent of control (BRSK1 (human)): 100%; kinase still bound, per cent of control (PRKG2 (human)): 91%; kinase still bound, per cent of control (MAP4K5 (human)): 3.4%; kinase still bound, per cent of control [3]: 2.8%; kinase still bound, per cent of control (MAP2K2 (human)): 58%; kinase still bound, per cent of control (PLK3 (human)): 83%; kinase still bound, per cent of control (CSK (human)): 0.75%; kinase still bound, per cent of control (ANKK1 (human)): 5.7%; kinase still bound, per cent of control [4]: 12%; kinase still bound, per cent of control (TSSK1B (human)): 100%; kinase still bound, per cent of control (CaMK1 (human)): 30%; kinase still bound, per cent of control (RIOK3 (human)): 0.35%; kinase still bound, per cent of control (HIPK1 (human)): 74%; kinase still bound, per cent of control (MAPK8 (human)): 19%
N#C/C(=C1/Nc2ccccc2S1)c1ccnc(NCCc2cccnc2)n1	27	100	100	79	100	89	100	91	70	2.7	84	92	69	100	79	78	100	49	58	100	kinase still bound, per cent of control [1]: 6.8%; kinase still bound, per cent of control (TLK1 (human)): 57%; kinase still bound, per cent of control (IRAK1 (human)): 6.2%; kinase still bound, per cent of control (MAPK15 (human)): 73%; kinase still bound, per cent of control (PAK1 (human)): 77%; kinase still bound, per cent of control (BRSK1 (human)): 85%; kinase still bound, per cent of control (PRKG2 (human)): 81%; kinase still bound, per cent of control (MAP4K5 (human)): 94%; kinase still bound, per cent of control [3]: 53%; kinase still bound, per cent of control (MAP2K2 (human)): 17%; kinase still bound, per cent of control (PLK3 (human)): 12%; kinase still bound, per cent of control (CSK (human)): 88%; kinase still bound, per cent of control (ANKK1 (human)): 5.6%; kinase still bound, per cent of control [4]: 22%; kinase still bound, per cent of control (TSSK1B (human)): 100%; kinase still bound, per cent of control (CaMK1 (human)): 73%; kinase still bound, per cent of control (RIOK3 (human)): 33%; kinase still bound, per cent of control (HIPK1 (human)): 1.2%; kinase still bound, per cent of control (MAPK8 (human)): 0%
